Source: patent US20240368142A1, “KCNT1 INHIBITORS AND METHODS OF USE” (Praxis Precision Medicines, Inc., priority 2021, published 2024)

Molecular target: T1, KCNT1 (KNa1.1, Slack) (Homo sapiens, UniProt Q5JUK3)
T1 construct: expressed in transfected cells; host or cells: HEK-TREX (tetracycline inducible cell line)
T1 sequence (Q5JUK3 1-1230): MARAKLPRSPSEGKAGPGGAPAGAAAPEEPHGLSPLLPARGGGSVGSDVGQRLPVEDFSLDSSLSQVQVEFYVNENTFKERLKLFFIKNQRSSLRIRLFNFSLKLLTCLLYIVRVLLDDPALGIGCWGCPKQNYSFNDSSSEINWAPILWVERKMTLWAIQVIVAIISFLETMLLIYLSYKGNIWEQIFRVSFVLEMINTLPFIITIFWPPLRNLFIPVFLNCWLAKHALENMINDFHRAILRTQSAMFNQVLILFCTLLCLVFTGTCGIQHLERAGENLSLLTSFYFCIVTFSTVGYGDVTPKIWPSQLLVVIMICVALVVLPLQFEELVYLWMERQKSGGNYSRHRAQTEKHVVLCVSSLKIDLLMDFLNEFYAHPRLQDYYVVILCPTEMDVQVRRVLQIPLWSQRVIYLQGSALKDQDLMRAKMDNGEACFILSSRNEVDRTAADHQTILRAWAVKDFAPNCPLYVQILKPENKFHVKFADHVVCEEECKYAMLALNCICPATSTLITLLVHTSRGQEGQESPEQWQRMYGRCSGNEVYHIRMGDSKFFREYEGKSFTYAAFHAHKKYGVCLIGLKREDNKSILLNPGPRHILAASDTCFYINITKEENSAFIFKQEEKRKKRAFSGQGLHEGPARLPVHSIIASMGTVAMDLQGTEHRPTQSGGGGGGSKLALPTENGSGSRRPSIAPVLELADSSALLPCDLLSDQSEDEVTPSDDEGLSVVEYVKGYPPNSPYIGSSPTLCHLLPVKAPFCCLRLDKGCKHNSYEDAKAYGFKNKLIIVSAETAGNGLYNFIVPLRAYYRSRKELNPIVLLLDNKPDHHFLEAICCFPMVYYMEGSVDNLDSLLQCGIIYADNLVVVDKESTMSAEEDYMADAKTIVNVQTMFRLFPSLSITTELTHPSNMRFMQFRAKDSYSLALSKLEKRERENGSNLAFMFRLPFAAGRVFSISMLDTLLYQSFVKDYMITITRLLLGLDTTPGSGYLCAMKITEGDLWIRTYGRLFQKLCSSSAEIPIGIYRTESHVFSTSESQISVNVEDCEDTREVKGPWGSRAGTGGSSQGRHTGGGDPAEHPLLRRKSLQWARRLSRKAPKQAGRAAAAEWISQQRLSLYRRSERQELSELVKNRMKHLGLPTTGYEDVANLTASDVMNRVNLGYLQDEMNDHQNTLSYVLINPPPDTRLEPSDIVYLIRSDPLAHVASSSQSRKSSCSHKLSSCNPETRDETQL
Experiment: KCNT1-WT-Basal-Patch Clamp Assay
Assay type: cell-based
Conditions: tetracycline inducible cell line (HEK-TREX), SyncroPatch 384PE automated patch clamp, perforated patch, holding -80 mV with step to 0 mV, room temperature
Procedure: KCNT1-WT-Basal-Patch Clamp Assay
Inhibition of KCNT1 (KNa1.1, Slack) was evaluated using a tetracycline inducible cell line (HEK-TREX). Currents were recorded using the SyncroPatch 384PE automated, patch clamp system. Pulse generation and data collection were performed with PatchController384 V1.3.0 and DataController384 V1.2.1 (Nanion Technologies). The access resistance and apparent membrane capacitance were estimated using built-in protocols. Current were recorded in perforated patch mode (10 μM escin) from a population of cells. The cells were lifted, triturated, and resuspended at 800,000 cells/ml. The cells were allowed to recover in the cell hotel prior to experimentation. Currents were recorded at room temperature. The external solution contained the following (in mM): NaCl 105, NMDG 40, KCl 4, MgCl2 1, CaCl2 5 and HEPES 10 (pH=7.4, Osmolarity ˜300 mOsm). The extracellular solution was used as the wash, reference and compound delivery solution. The internal solution contained the following (in mM): NaCl 70, KF 70, KCl 10, EGTA 5, HEPES 5 and Escin 0.01 (pH=7.2, Osmolarity ˜295 mOsm). Escin is made at a 5 mM stock in water, aliquoted, and stored at −20° C. The compound plate was created at 2× concentrated in the extracellular solution. The compound was diluted to 1:2 when added to the recording well. The amount of DMSO in the extracellular solution was held constant at the level used for the highest tested concentration. A holding potential of −80 mV with a 100 ms step to 0 mV was used. Mean current was measured during the step to 0 mV. […] The average mean current from 3 sweeps was calculated and the % inhibition of each compound was calculated. The % Inhibition as a function of the compound concentration was fit with a Hill equation to derive IC50, slope, min and max parameters. If KCNT1 inhibition was less than 50% at the highest tested concentration or if an IC50 could not be calculated, then a percent inhibition was reported in place of the IC50. In this table, “A” indicates IC50 of less than or equal to 1 μM; “B” indicates inhibition of between 1 μM to 20 μM; and “C” indicates inhibition of greater than or equal to 20 μM.

| IC50 | SMILES |
| --- | --- |
| 1000 to 20000 nM | C[C@@H](C(=O)N1CCCCC1)c1nc(-c2ccnc(C3CC3)c2)no1 (single isomer, unassigned) [Compound 6] |
| ≥ 20000 nM | C[C@H](C(=O)N1CCCCC1)c1nc(-c2ccnc(C3CC3)c2)no1 (single isomer, unassigned) [Compound 7] |
| ≤ 1000 nM | C[C@@H](C(=O)Nc1ccccc1)c1nc(-c2ccnc(C3CC3)c2)no1 (single isomer, unassigned) [Compound 8] |
| ≤ 1000 nM | C[C@H](C(=O)Nc1ccccc1)c1nc(-c2ccnc(C3CC3)c2)no1 (single isomer, unassigned) [Compound 9] |
| 1000 to 20000 nM | CC(C(=O)N(C)c1ccccc1)c1nc(-c2ccnc(C3CC3)c2)no1 (stereo not drawn) [Compound 10, -[3-(2-cyclopropyl-4-pyridyl)-1,2,4-oxadiazol-5-yl]-N-methyl-N-phenyl-propanamide] |
| ≤ 1000 nM | CC(C(=O)N[C@@H](C)c1ccccc1)c1nc(-c2ccnc(C3CC3)c2)no1 (stereo partly drawn) [Compound 11, 2-(3-(2-cyclopropylpyridin-4-yl)-1,2,4-oxadiazol-5-yl)-N—((S)-1-phenylethyl)propanamide] |
| ≤ 1000 nM | CC(C(=O)N[C@H](C)c1ccccc1)c1nc(-c2ccnc(C3CC3)c2)no1 (stereo partly drawn) [Compound 12, 2-(3-(2-cyclopropylpyridin-4-yl)-1,2,4-oxadiazol-5-yl)-N—((R)-1-phenylethyl)propanamide] |

Second part, the compound before the results:

| SMILES | IC50 |
| --- | --- |
| C[C@@H](C(=O)NC1CCCCC1)c1nc(-c2ccnc(C3CC3)c2)no1 (single isomer, unassigned) [Compound 3] | ≤ 1000 nM |
| C[C@H](C(=O)NC1CCCCC1)c1nc(-c2ccnc(C3CC3)c2)no1 (single isomer, unassigned) [Compound 4] | ≤ 1000 nM |
| CC(C(=O)Nc1ccccc1)c1nc(-c2ccnc(C3CC3)c2)no1 (stereo not drawn) [Compound 1, 2-[3-(2-cyclopropyl-4-pyridyl)-1,2,4-oxadiazol-5-yl]-N-phenyl-propanamide] | ≤ 1000 nM |
| CC(C(=O)NCc1ccccc1)c1nc(-c2ccnc(C3CC3)c2)no1 (stereo not drawn) [Compound 2, N-benzyl-2-(3-(2-cyclopropylpyridin-4-yl)-1,2,4-oxadiazol-5-yl)propanamide] | ≤ 1000 nM |
| CC(C(=O)N1CCCCC1)c1nc(-c2ccnc(C3CC3)c2)no1 (stereo not drawn) [Compound 5, 2-(3-(2-cyclopropylpyridin-4-yl)-1,2,4-oxadiazol-5-yl)-1-(piperidin-1-yl)propan-1-one] | 1000 to 20000 nM |
